Reference: ChEMBL document CHEMBL4680302, “Biologic-like In Vivo Efficacy with Small Molecule Inhibitors of TNFα Identified Using Scaffold Hopping and Structure-Based Drug Design Approaches” (J Med Chem, 2020)

Assays:
[1] = Metabolic stability in mouse liver microsomes assessed as parent compound remaining after 10 mins; format: ADME, Microsome; conditions: read-out: Stabilty
[2] = molecular target: T1, Tumor necrosis factor (Homo sapiens, UniProt P01375); assay: Inhibition of exogenous human TNFalpha in HEK-Blue-CD40L cells assessed as reduction in TNF-alpha-induced NFkappaB activation incubated for 18 hrs by quanti-blue based SEAP assay; format: cell-based
[3] = molecular target: T1, Tumor necrosis factor; assay: Displacement of fluorescent labeled probe from human recombinant His-tagged TNFalpha (77 to 233 residues) expressed in Escherichia coli preincubated for 1 hr followed by fluorogenic probe addition and measured after 3 hrs by HTRF assay
[4] = Metabolic stability in human liver microsomes assessed as parent compound remaining after 10 mins; format: ADME, Microsome; conditions: read-out: Stabilty
[5] = molecular target: Cytochrome P450 2C19 (Homo sapiens, UniProt P33261); assay: Inhibition of recombinant CYP2C19 (unknown origin); format: ADME
[6] = molecular target: Cytochrome P450 2C9 (Homo sapiens, UniProt P11712); assay: Inhibition of recombinant CYP2C9 (unknown origin); format: ADME
Sequence of Cytochrome P450 2C9 (P11712 whole entry): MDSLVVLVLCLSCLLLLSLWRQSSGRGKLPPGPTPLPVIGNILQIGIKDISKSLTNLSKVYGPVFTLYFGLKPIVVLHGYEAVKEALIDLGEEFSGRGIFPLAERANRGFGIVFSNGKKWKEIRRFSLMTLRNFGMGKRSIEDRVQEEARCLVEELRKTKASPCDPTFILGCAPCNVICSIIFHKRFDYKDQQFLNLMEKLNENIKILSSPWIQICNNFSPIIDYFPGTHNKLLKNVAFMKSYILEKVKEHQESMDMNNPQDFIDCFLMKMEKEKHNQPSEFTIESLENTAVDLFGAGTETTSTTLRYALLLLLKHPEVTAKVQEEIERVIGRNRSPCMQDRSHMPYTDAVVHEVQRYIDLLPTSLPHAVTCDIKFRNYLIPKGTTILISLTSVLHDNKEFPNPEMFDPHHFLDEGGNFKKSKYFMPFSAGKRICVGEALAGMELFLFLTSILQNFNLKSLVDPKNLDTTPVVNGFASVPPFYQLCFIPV

T1 sequence (P01375 whole entry, the tested form may be a part): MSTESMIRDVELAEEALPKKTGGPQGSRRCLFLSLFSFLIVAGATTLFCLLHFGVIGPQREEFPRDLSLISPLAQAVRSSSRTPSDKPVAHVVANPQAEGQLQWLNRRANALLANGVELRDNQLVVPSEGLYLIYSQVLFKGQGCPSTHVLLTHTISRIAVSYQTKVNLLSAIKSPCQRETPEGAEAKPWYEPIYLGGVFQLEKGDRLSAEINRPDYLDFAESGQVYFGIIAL
Sequence of Cytochrome P450 2C19 (P33261 whole entry): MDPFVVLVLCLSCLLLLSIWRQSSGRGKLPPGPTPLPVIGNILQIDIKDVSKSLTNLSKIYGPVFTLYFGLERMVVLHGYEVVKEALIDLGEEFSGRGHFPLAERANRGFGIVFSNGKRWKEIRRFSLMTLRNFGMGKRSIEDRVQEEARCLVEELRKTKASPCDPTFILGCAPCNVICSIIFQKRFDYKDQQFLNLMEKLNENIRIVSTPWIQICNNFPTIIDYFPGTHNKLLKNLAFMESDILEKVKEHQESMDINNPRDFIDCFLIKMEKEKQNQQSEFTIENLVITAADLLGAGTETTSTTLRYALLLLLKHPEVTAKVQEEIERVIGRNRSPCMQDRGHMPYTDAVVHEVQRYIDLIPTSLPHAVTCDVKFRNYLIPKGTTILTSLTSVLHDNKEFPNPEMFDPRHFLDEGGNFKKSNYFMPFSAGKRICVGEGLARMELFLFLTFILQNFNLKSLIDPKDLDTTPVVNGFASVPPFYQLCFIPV

Work on `CC(Nc1c(Cl)cnc2c(Cl)cc(-c3cnc(C(C)(C)O)nc3)cc12)c1ccccc1F` (racemic) yielded a remaining at 10 min [1] of 7%, an IC50 [2] greater than 25000 nM and an IC50 [3] of 106 nM. For the same compound, the remaining at 10 min [4] was 40%.
Compound `CC(Nc1c(Cl)cnc2ccc(-c3cnc(C(C)(C)O)nc3)cc12)c1ccccc1F` (racemic) has a remaining at 10 min [1] of 34%, an IC50 [2] of 190 nM and an IC50 [3] of 27 nM. It also gave a remaining at 10 min [4] of 51%.
`CCOc1ncc(-c2ccc3ncc(Cl)c(N[C@H](C)c4ccccc4F)c3c2)cn1` gave a remaining at 10 min [1] of 28%, an IC50 [2] of 587 nM and an IC50 [3] of 15 nM. The remaining at 10 min [4] was 32%.
Work on `C[C@@H](Nc1c(Cl)cnc2ccc(-c3ccc(C(C)(C)O)cc3)cc12)c1ccccc1F` yielded a remaining at 10 min [1] of 24%, an IC50 [2] of 65 nM and an IC50 [3] of 47 nM. The remaining at 10 min [4] was 73%.
With `C[C@@H](Nc1c(Cl)cnc2ccc(-c3cnc(N4CCN(CC(=O)O)CC4)nc3)cc12)c1ccccc1F` the remaining at 10 min [1] was 57%, the IC50 [2] was 115 nM and the remaining at 10 min [4] was 86%.
Work on `CC(C)(O)c1ncc(-c2ccc3ncc(Cl)c(NCc4ccccc4)c3c2)cn1` yielded a remaining at 10 min [1] of 61%, an IC50 [2] greater than 25000 nM and an IC50 [3] of 82 nM. It also gave a remaining at 10 min [4] of 57%.
`CC(Nc1c(Cl)cnc2ccc(-c3cnc(C(C)(C)O)nc3)cc12)c1cccc(F)c1` (racemic) showed a remaining at 10 min [1] of 32%, an IC50 [2] of 1040 nM and an IC50 [3] of 31 nM. It also gave a remaining at 10 min [4] of 47%.
In the case of `C[C@@H](Nc1c(Cl)cnc2ccc(-c3cnc(C(C)(C)O)nc3)cc12)c1ccccc1`, the remaining at 10 min [1] is reported as 50%, the IC50 [2] is reported as 496 nM and the IC50 [3] is reported as 14 nM. The remaining at 10 min [4] was 45%.
For `C[C@@H](Nc1c(Cl)cnc2ccc(-c3cnc(C(C)(C)O)nc3)cc12)c1cc(N2CCCC2)ccc1F`, the remaining at 10 min [1] was 18%, the IC50 [2] was 331 nM and the IC50 [3] was 94 nM. It also gave a remaining at 10 min [4] of 30%.
`CC(Nc1c(Cl)cnc2cnc(-c3cnc(C(C)(C)O)nc3)cc12)c1ccccc1F` (racemic) showed an IC50 [3] of 400 nM.
Work on `CC(Nc1c(Cl)cnc2ccc(-c3cnc(C(C)(C)O)nc3)cc12)c1ccc(F)cc1` (racemic) yielded a remaining at 10 min [1] of 38%, an IC50 [2] of 840 nM and an IC50 [3] of 62 nM. For the same compound, the remaining at 10 min [4] was 42%.
`CC(Nc1c(Cl)cnc2cc(F)c(-c3cnc(C(C)(C)O)nc3)cc12)c1ccccc1F` (racemic) gave a remaining at 10 min [1] of 28%, an IC50 [2] of 64 nM and an IC50 [3] of 48 nM. For the same compound, the remaining at 10 min [4] was 70%.
`Cc1ccc(C)c(Nc2c(Cl)cnc3ccc(Br)cc23)c1` gave an IC50 [2] of 840 nM and an IC50 [3] of 36 nM.
In the case of `CC(Nc1c(Cl)cnc2ncc(-c3cnc(C(C)(C)O)nc3)cc12)c1ccccc1F` (racemic), the IC50 [3] is reported as 207 nM.
For `CC(Nc1c(Cl)cnc2cc(Cl)c(-c3cnc(C(C)(C)O)nc3)cc12)c1ccccc1F` (racemic), the IC50 [2] was 178 nM and the IC50 [3] was 54 nM.
`CC(Nc1c(Cl)cnc2ccc(-c3cnc(C(C)(C)O)nc3)cc12)c1ccccc1C(F)(F)F` (racemic) showed a remaining at 10 min [1] of 49%, an IC50 [2] of 407 nM and an IC50 [3] of 51 nM. It also gave a remaining at 10 min [4] of 81%.
In the case of `CC(Nc1c(Cl)cnc2c(F)cc(-c3cnc(C(C)(C)O)nc3)cc12)c1ccccc1F` (racemic), the remaining at 10 min [1] is reported as 25%, the IC50 [2] is reported as 224 nM and the IC50 [3] is reported as 46 nM. The remaining at 10 min [4] was 67%.
For `C[C@@H](Nc1c(Cl)cnc2ccc(-c3cnc(C(C)(C)O)nc3)cc12)c1ccccc1F`, the remaining at 10 min [1] was 54%, the IC50 [2] was 110 nM and the IC50 [3] was 17 nM. The remaining at 10 min [4] was 59%.
`CC(Nc1c(Cl)cnc2ccc(-c3cnc(C(C)(C)O)nc3)cc12)c1ccccn1` (racemic) gave a remaining at 10 min [1] of 21%, an IC50 [2] greater than 25000 nM and an IC50 [3] of 264 nM. For the same compound, the remaining at 10 min [4] was 50%.
Work on `CC(Nc1c(Cl)cnc2ccc(-c3cnc(C(C)(C)O)nc3)nc12)c1ccccc1F` (single isomer, unassigned; enantiomer 1) yielded an IC50 [2] of 753 nM and an IC50 [3] of 39 nM.
Work on `CC(C)(O)c1ncc(-c2ccc3ncc(Cl)c(NC(C)(C)c4ccccc4)c3c2)cn1` yielded a remaining at 10 min [1] of 47%, an IC50 [2] greater than 25000 nM and an IC50 [3] greater than 10000 nM. It also gave a remaining at 10 min [4] of 76%.
Work on `C[C@@H](Nc1c(Cl)cnc2ccc(-c3cnc(C(C)(C)O)nc3)cc12)c1cc(C#N)ccc1F` yielded a remaining at 10 min [1] of 23%, an IC50 [2] of 49 nM and an IC50 [3] of 48 nM. It also gave a remaining at 10 min [4] of 79%.
With `CC(Nc1c(Cl)cnc2ccc(-c3cnc(C(C)(C)O)nc3)nc12)c1ccccc1F` (single isomer, unassigned; enantiomer 2) the remaining at 10 min [1] was 41%, the IC50 [2] was 473 nM and the IC50 [3] was 38 nM. For the same compound, the remaining at 10 min [4] was 84% and the IC50 [5] was 30 nM.
For `C[C@@H](Nc1c(Cl)cnc2ccc(-c3cnc(C(C)(C)O)nc3)cc12)c1cc(N)ccc1F`, the remaining at 10 min [1] was 45%, the IC50 [2] was 41 nM and the IC50 [3] was 37 nM. The remaining at 10 min [4] was 70%.
Work on `C[C@@H](Nc1c(Cl)cnc2ccc(-c3ccc(S(C)(=O)=O)nc3)cc12)c1ccccc1F` yielded a remaining at 10 min [1] of 31%, an IC50 [2] of 909 nM and an IC50 [3] of 15 nM. The remaining at 10 min [4] was 33%.
Compound `Cc1ccc(C)c(Nc2c(Cl)cnc3ccc(-c4ccc(C#N)nc4)cc23)c1` has a remaining at 10 min [1] of 30%, an IC50 [2] of 73 nM and an IC50 [3] of 35 nM. It also gave a remaining at 10 min [4] of 33%.
With `C[C@@H](Nc1c(Cl)cnc2ccc(-c3cnc(N4CCS(=O)(=O)CC4)nc3)cc12)c1ccccc1F` the remaining at 10 min [1] was 34%, the IC50 [2] was 152 nM and the IC50 [3] was 25 nM. The remaining at 10 min [4] was 57%.
`CC(Nc1c(Cl)cnc2ccc(-c3cnc(C(C)(C)O)nc3)nc12)c1ccccc1F` (racemic) showed an IC50 [3] of 24 nM.
With `Cc1ccc(C)c(Nc2c(Cl)c(C)nc3ccc(-c4cnc(C(C)(C)O)nc4)cc23)c1` the IC50 [6] was 2800 nM, the IC50 [2] was 196 nM and the IC50 [3] was 51 nM. The IC50 [5] was 2100 nM.
Work on `CC(C)C(Nc1c(Cl)cnc2ccc(-c3cnc(C(C)(C)O)nc3)cc12)c1ccccc1F` (racemic) yielded a remaining at 10 min [1] of 13%, an IC50 [2] of 826 nM and an IC50 [3] of 57 nM. It also gave a remaining at 10 min [4] of 69%.
For `Cc1ccc(C)c(Nc2c(C)cnc3ccc(-c4cnc(C(C)(C)O)nc4)cc23)c1`, the IC50 [2] was 107 nM.
`C[C@@H](Nc1ccnc2ccc(-c3cnc(C(C)(C)O)nc3)cc12)c1cc(N2CCCC2)ccc1F` showed a remaining at 10 min [1] of 51%, an IC50 [2] greater than 25000 nM and an IC50 [3] of 15100 nM. For the same compound, the remaining at 10 min [4] was 46%.
In the case of `C[C@H](Nc1c(Cl)cnc2ccc(-c3cnc(C(C)(C)O)nc3)cc12)c1ccccc1`, the remaining at 10 min [1] is reported as 26%, the IC50 [2] is reported as greater than 25000 nM and the IC50 [3] is reported as 943 nM. The remaining at 10 min [4] was 32%.
With `Cc1ccc(C)c(Nc2ccnc3ccc(-c4ccc(C#N)nc4)cc23)c1` the IC50 [2] was greater than 25000 nM and the IC50 [3] was 428 nM.
Work on `CC(Nc1c(Cl)cnc2ccc(-c3cnc(C(C)(C)O)nc3)c(Cl)c12)c1ccccc1F` (racemic) yielded an IC50 [2] of 365 nM and an IC50 [3] of 116 nM.
Compound `CCC(Nc1c(Cl)cnc2ccc(-c3cnc(C(C)(C)O)nc3)cc12)c1ccccc1F` (racemic) has a remaining at 10 min [1] of 38%, an IC50 [2] of 368 nM and an IC50 [3] of 35 nM. For the same compound, the remaining at 10 min [4] was 57%.
In the case of `Cc1ccc(C)c(Nc2c(Cl)cnc3ccc(-c4cnc(C(C)(C)O)nc4)cc23)c1`, the remaining at 10 min [1] is reported as 24%, the IC50 [6] is reported as 600 nM and the IC50 [2] is reported as 105 nM. The remaining at 10 min [4] was 35% and the IC50 [5] was 30 nM.
